Results as given in patent publication US20170029451A1, “BRANCHED CHAIN ACYCLIC NUCLEOSIDE PHOSPHONATE ESTERS AND METHODS OF SYNTHESIS AND USES THEREOF” (CHIMERIX, INC., priority 2013, published 2017).
pEC50: −log10 of the molar value. Like-named read-outs stand apart in the source and are kept apart here.

Key:
HCMV (Strain AD169) = assay: Plaque reduction assay, HCMV AD169 in human foreskin fibroblast cells; type: cell-based, Human Cytomegalovirus (HCMV); conditions: for pEC50: Human betaherpesvirus 5, AD169, Fibroblast
in vitro = conditions: human
BKV (Gardner strain) = assay: BKV EC50 in Vero cells (qPCR of supernatant BKV DNA); type: cell-based, BK virus (BKV); conditions: Betapolyomavirus hominis
Procedure: Costar 96-well tissue culture plates were seeded with 10,000 Vero cells/well in DMEM containing 2% Hyclone Standard Fetal Bovine Serum (FBS, Cat 5H30088.03) and 1% Hyclone Penicillin and Streptomycin. Outer wells were not used to minimize the edge-effect produced by extended incubations. Cells were inoculated with 115 BKV DNA copies/cell (ATCC, Gardner strain). Serial dilutions of test compounds were added to the cells and plates were incubated for 10 days at 37° C. in 5% CO2. After the 10-day incubation, 50 μL supernatant was mixed with 50 μL 2× lysis buffer that provided a final concentration 0.5 mg/mL protease K, 50 mM KCl, 10 mM Tris-Cl pH 8.0, 2.5 mM MgCl2, 0.45% IGEPAL, and 0.45% Tween-20 dissolved in DEPC-treated water. Each plate was incubated for 2 hours at 55° C. Supernatant BKV DNA was measured by quantitative polymerase chain reaction (qPCR) using forward and reverse BKV PCR primers, and a FAM-labeled probe. Absolute quantitation of viral copy number was performed using a standard curve with dilutions of a BKV DNA amplicon containing sequences homologous to the amplified fragment. The following qPCR amplification conditions were used: 1 cycle at 95° C. for 10 minutes, followed by 45 cycles of 95° C. for 15 seconds and 60° C. for 60 seconds. The qPCR reactions were performed using an Applied Biosystems 7500 real Time PCR System. Gen 5 software (BioTek Instruments, Inc.) was used to calculate the concentration which inhibited the viral DNA levels of BKV-infected Vero cells by 50% (EC50).

Poliovirus 3 = assay: microbe, parasite or virus in culture; type: cell-based; conditions: Enterovirus C, Vero 76
[1] = Cytotoxicity (CC50) in MRC-5 cells; type: cell-based; conditions: human, cell line MRC5 (HCMV row)
Procedure: Costar 96-well tissue culture plates were seeded with 20,000 MRC-5 cells (ATCC)/well in EMEM (ATCC, Cat 30-2003) containing 2% Hyclone Standard Fetal Bovine Serum (FBS, Cat 5H30088.03) and 1% Hyclone Penicillin and Streptomycin (Cat SV30010). Outer wells were not used to minimize the edge-effect produced by extended incubations. Serial dilutions of test compounds were added to the cells and plates were incubated for 7 days at 37° C. in 5% CO2. After 7 days of incubation 40 μL of Cell Titer 96® Aqueous MTS Reagent (Promega, G111) was added as directed by manufacturer to the 200 iut media in each well and incubated at 37° C. until the untreated-cell controls developed an 490 nm absorbance between 1.1 and 1.8. The final absorbance readings were read using a BioTek Synergy 2, and Gen 5 software (BioTek Instruments, Inc.) was used to calculate the concentration which inhibited MRC-5 cells by 50% (CC50).

[2] = system: HCMV UL54 resistant mutant D542E (HDP-CDV^R); assay: microbe, parasite or virus in culture; type: cell-based, Human Cytomegalovirus (HCMV)
[3] = system: HCMV UL54 resistant mutant 4955^R; assay: microbe, parasite or virus in culture; type: cell-based, Human Cytomegalovirus (HCMV); conditions: Human betaherpesvirus 5, Fibroblast
[4] = system: Vaccinia Virus (Strain Copenhagen); assay: microbe, parasite or virus in culture; type: cell-based; conditions: Orthopoxvirus vaccinia, Fibroblast, read-out: VACV EC50, μM

Work on `CC(C)CCCCCCCCCCCCCCOCCCOP(=O)(O)COC(CO)Cn1ccc(=O)[nH]c1=O` (stereo not drawn) [Compound 12] yielded a pEC50 (HCMV (Strain AD169); Strain AD169, human foreskin fibroblast cells, read-out: HCMV EC50) of 7.28, a pEC50 (HCMV (Strain AD169); Virus AD169, human foreskin fibroblast cells (Table 3), read-out: EC50) of roughly 7.28 and an EC90 (HCMV (Strain AD169); Human betaherpesvirus 5, Virus AD169, human foreskin fibroblast cells) of 150 nM. The CC50 (in vitro) was greater than 20 µM, the CC50 (in vitro; CC50 (μM)) was 36.9 µM and the pEC50 (BKV (Gardner strain); BKV in Vero cells (Table 7), read-out: BKV EC50) was 5.81. It also gave a pEC50 (BKV (Gardner strain); Virus BKV, cell line Vero (Table 8), read-out: EC50) of 5.68, a pEC50 (Poliovirus 3) of 5.48 and a CC50 at 7 days [1] of 50 µM. For the same molecule, the EC50 ([2]; Human betaherpesvirus 5, Fibroblast, read-out: EC50 μM, Virus D542E (HDP-CDV^R), human foreskin fibroblast cells) was roughly 5.41 µM, the EC90 ([2]; Human betaherpesvirus 5, Fibroblast, read-out: EC90 μM) was greater than 10 µM and the “efficacy on UL54 HCMV resistant variants” value ([2]; effect of mutations in UL54 which reduce efficacy for HDP-CDV) was “reduced”. It also gave an EC50 ([3]; read-out: EC50 μM, Virus 4955^R, human foreskin fibroblast cells) of roughly 0.143 µM, an EC90 ([3]; read-out: EC90 μM) of 0.372 µM and an EC50 [4] greater than 10 µM.
